Structures can show the parent of a compound that is named as a salt. Active and inactive are the calls of the source. The rule behind the calls is not given here.
Assay: Cytotoxicity activity against human HepG2 cells assessed by CellTiter-Glo luminescent cell viability assay.
Assay type: toxicity, cell-based
Set-up: assay stage confirmatory assay, source tissue liver
Details: HepG2 cells, read-out: IC50 relative

Row | Structure (SMILES) | CC50
1 | COc1ccc(Nc2ssc(=O)c2Cl)cc1OC | 13.8 µM (active)
2 | COc1ccc([N+](=O)[O-])c(S(=O)(=O)c2ccc(Cl)cc2)n1 | 2.2 µM (active)
3 | O=C(Nc1ccccc1-c1cn2c(CN3CCNCC3)csc2n1)c1cnc2ccccc2n1 | 1.6 µM (active)
4 | N#Cc1ccc(COC[C@H]2O[C@@H](n3c(NCc4ccc(Cl)c(Cl)c4)nc4c(N)ncnc43)[C@H](O)[C@@H]2O)cc1 | 3 µM (active)
5 | CNC(=O)c1c(N)sc2c1-c1ccccc1C2 | 19.3 µM (inactive)
6 | Cc1ccc(N2N=C(C(=O)N3CCCC3)S(=O)(=O)c3cccnc32)cc1 | 3.3 µM (active)
7 | COc1cc2ncnc(-n3nc(-c4ccccn4)nc3N)c2cc1OC | 1.5 µM (active)
8 | CN(C)c1cc(CNCc2cccc(OCc3ccccn3)c2)ccn1 | 15.3 µM (inactive)
9 | COc1ccc(-c2nc(CN3CCN(C(=O)c4ccc5c(c4)OCO5)CC3)cs2)cc1 | 7.8 µM (active)
10 | Cc1ccc(Sc2cccc3nc(N)nc(N)c23)cc1 | 8.3 µM (active)
11 | Clc1nss/c1=N\c1ccc(Br)cc1 | 24.2 µM (inactive)
12 | O=C(Nc1nccs1)c1cccc(S(=O)(=O)N2CCc3ccccc32)c1 | 8.3 µM (active)
13 | Cn1c(=O)oc2cc(S(=O)(=O)Nc3cccc4cccnc34)ccc21 | 16.7 µM (active)
14 | COCC1CCN(Cc2ccc(C(C)C)cc(O)c2=O)CC1 | 11.8 µM (active)
15 | O=C(CC1Sc2ncnn2C1=O)Nc1ccc(Br)cc1 (centres undefined) | 15.3 µM (inactive)
16 | CCc1oc2ccccc2c1CN(C)C(=O)C1(C)CCN(C)CC1 | 12 µM (active)
17 | Cn1cc(-c2cnn3c(N)c(Br)c([C@@H]4CCCNC4)nc23)cn1 [SCH-900776] | 10.9 µM (active)
18 | CC1(C)CC[C@H](CO)N(CCS(=O)(=O)c2ccc(C#N)cc2)C1 | 11.7 µM (active)
19 | CC(C)c1cc(C(=O)NCc2ccc(N3CCO[C@@H](C)C3)nc2)n[nH]1 | 4.8 µM (active)
20 | Cc1noc2ncnc(N3CCC(C(=O)N4CCc5ccccc54)CC3)c12 | 10.9 µM (active)
21 | CCN(Cc1nc2cc(OC)c(OC)cc2c(=O)[nH]1)C(=O)c1ccc2c(c1)OCO2 | 12.7 µM (active)
22 | CN(C)CCCN(CCCN(C)C)CC(c1ccccc1)c1ccccc1 | 7.2 µM (active)
23 | CN(Cc1ccc2c(c1)OCCO2)C(=O)[C@H]1CCCN(S(N)(=O)=O)C1 | 50 µM (inactive)

Row | Structure (SMILES) | CC50
24 | C[C@H](O)CN1CCC(CNCc2cccc(C(F)(F)F)c2)CC1 | 15.5 µM (inactive)
25 | OCCN1CCN(CCCN2c3ccccc3Sc3ccc(C(F)(F)F)cc32)CC1 [FLUPHENAZINE HYDROCHLORIDE] | 3.2 µM (active)
26 | CN(C)S(=O)(=O)c1cccc(NC(=O)c2ccc(S(=O)(=O)N(C)c3ccccc3)cc2)c1 | 2.6 µM (active)
27 | Cc1ccc(C(=O)Nc2ccc(CN3CCN(C)CC3)c(C(F)(F)F)c2)cc1C#Cc1cnc2cccnn12 [PONATINIB] | 0.3 µM (active)
28 | O=C(CCCCCCNC(=O)c1cnc(N(c2ccccc2)c2ccccc2)nc1)NO [RICOLINOSTAT] | 3.5 µM (active)
29 | Cc1ccc2ncc(C(=O)Nc3ccc(Cl)cc3O)c(=O)n2c1 | 1.4 µM (inactive)
30 | C[C@@H]1CN(Cc2ccc(F)cc2)CCN1C(=O)COc1ccc(Cl)cc1NC(N)=O [BX 471 FREE BASE] | 4.8 µM (active)
31 | O=C(NOC[C@H](O)CO)c1ccc(F)c(F)c1Nc1ccc(I)cc1F [MIRDAMETINIB] | < 0.1 µM (active)
32 | CC(C)(C)C[C@H]1N[C@@H](C(=O)N[C@H]2CC[C@H](O)CC2)[C@H](c2cccc(Cl)c2F)[C@@]12C(=O)Nc1cc(Cl)ccc12 | 4.9 µM (active)
33 | COc1cc2nc(-c3cc(F)ccc3O)nc(N[C@@H]3CNC[C@H]3C(C)(C)O)c2cc1OC | 1.6 µM (active)
34 | CCN(CC)C(=O)N1CC(Oc2ccc(-c3noc(-c4cccnc4)n3)cc2)C1 | 2.2 µM (active)
35 | CCN(c1nc(N)c(C(=O)NC(=N)N)nc1Cl)C(C)C | 12.5 µM (active)
36 | COc1cc2ncnc(Nc3cccc(Cl)c3)c2cc1OC [TYRPHOSTIN AG-1478] | 8.3 µM (active)
37 | COc1ccc2cc1Oc1ccc(cc1)C[C@H]1c3cc(c(OC)cc3CCN1C)Oc1c(OC)c(OC)cc3c1[C@H](C2)N(C)CC3 [FANCHININ] | 1.4 µM (active)
38 | COc1cc2c(cc1OC(C)C)[C@H](c1ccc(Cl)cc1)N(c1ccc(N(C)C[C@H]3CC[C@H](N4CCN(C)C(=O)C4)CC3)cc1)C(=O)C2 [CGM-097] | 6.3 µM (active)
39 | COc1ccc(C(=O)N[C@@H]2CN(Cc3ccccc3)C[C@H]2CN(C)C)c(OC)c1 | 11.1 µM (active)
40 | O=C(Nc1nc2ccccc2[nH]1)c1ccc(-n2cccn2)cc1 | 48.2 µM (inactive)
41 | CC1=NN(C(=O)c2ccc(N(C)C)cc2)C(O)(C(F)(F)F)C1 (centres undefined) | 25 µM (inactive)
42 | O=C(Cc1cnn(-c2ccccc2)c1)N1CCN(S(=O)(=O)c2ccc3c(c2)OCCCO3)CC1 | 8.6 µM (active)
43 | Oc1cc(O)c2sc(Nc3ccc(F)cc3)nc2n1 | 5.1 µM (active)
44 | CN(Cc1cc(=O)n2cccc(O)c2n1)CC1(c2ccccc2)CC1(C)C (centres undefined) | 2.9 µM (active)
45 | Cc1nc(NC(=O)N2CCC[C@H]2C(N)=O)sc1-c1ccnc(C(C)(C)C(F)(F)F)c1 [ALPELISIB] | 6.1 µM (active)
46 | CN1C[C@H](C(=O)N[C@]2(C)O[C@@]3(O)[C@@H]4CCCN4C(=O)[C@H](Cc4ccccc4)N3C2=O)C[C@@H]2c3cccc4[nH]cc(c34)C[C@H]21 [DIHYDROERGOTAMINE MESYLATE] | 12.9 µM (active)

Row | Structure (SMILES) | CC50
47 | CN1CCCN(C(=O)Nc2ccc3c4c(cccc24)CC3)CC1 | 9.4 µM (active)
48 | CCN(CC)CCCNC(=O)C1CCN(c2nn3cc(-c4ccc(OC)cc4)nc3s2)CC1 | 3 µM (active)
49 | Clc1ccc(COC(Cn2ccnc2)c2ccc(Cl)cc2Cl)c(Cl)c1 (centres undefined) [MICONAZOLE NITRATE] | 12 µM (active)
50 | COc1cc2c(NC3CCN(C(C)C)CC3)nc(C3CCCCC3)nc2cc1OCCCN1CCCC1 | 2.4 µM (active)
51 | CNCCCN1c2ccccc2CCc2ccccc21 [DESIPRAMINE HYDROCHLORIDE] | 11.4 µM (active)
52 | Cc1cccnc1C(NC(=O)CCOc1ccccc1)C1CC1 (centres undefined) | 36.5 µM (inactive)
53 | CCC(C)NC(=O)N1CC(Oc2ccc(-c3noc(C4CC4)n3)cc2)C1 (centres undefined) | 3.5 µM (active)
54 | O=C(Nc1cccnn1)N1CCC(=Cc2cccc(Oc3ccc(C(F)(F)F)cn3)c2)CC1 | 7.5 µM (active)
55 | Clc1cccc2[nH]nc(Br)c12 | 8.8 µM (active)
56 | O=C(NCCc1ccco1)c1cc2ccccc2cc1O | 8.5 µM (active)
57 | CCOc1cc(/C=C2/C(=O)N(c3ccccc3)N=C2C)cc(Cl)c1OCC(=O)OC | 12.3 µM (active)
58 | Cc1ccc(Nc2ncc3c(n2)N(C)C(=O)N(c2cc(NC(=O)c4cccc(C(F)(F)F)c4)ccc2C)C3)cn1 | 0.1 µM (active)
59 | Cc1nnsc1C(=O)Nc1ccc(-n2nc(C(F)(F)F)cc2C(F)(F)F)cc1 | 9.9 µM (active)
60 | Fc1ccc([C@@H]2CCNC[C@H]2COc2ccc3c(c2)OCO3)cc1 [PAROXETINE HYDROCHLORIDE] | 4.1 µM (active)
61 | O=C(Nc1ccc(-c2cn3ccsc3n2)cc1)c1cccc(CO)c1 | 6.3 µM (active)
62 | CN(C)C/C=C/C(=O)Nc1cc2c(Nc3ccc(F)c(Cl)c3)ncnc2cc1O[C@H]1CCOC1 [AFATINIB DIMALEATE] | 2.3 µM (active)
63 | C[C@H]1CN(CC(=O)Nc2nc3ccc(F)cc3s2)CCN1c1nccn2cnnc12 | 8 µM (active)
64 | CN(C)S(=O)(=O)c1ccc2oc(SCCOc3ccccc3)nc2c1 | 10 µM (active)
65 | C[C@H](Nc1nc(N)nc2ccccc12)c1ccccc1 | 3.9 µM (active)
66 | CCOc1ccccc1NC(=O)COc1cccc2c(=O)n(C)ccc12 | 1.4 µM (inactive)
67 | CN(C)CCNC(=O)NC[C@H]1CC[C@@H]2[C@H](O1)c1cc(C(F)(F)F)ccc1N[C@H]2c1ccccc1 | 3.5 µM (active)
68 | Cc1nn(-c2ccccc2)nc1C(=O)Nc1ccc(S(=O)(=O)NCCCN2CCOCC2)cc1 | 10.3 µM (active)
69 | Cc1cc(N2C[C@@H](C)N[C@@H](C)C2)ncc1-c1ccc(-c2nc3c(ccn3C)c(=O)[nH]2)cc1 | 1.8 µM (active)

Row | Structure (SMILES) | CC50
70 | N#Cc1cc2cc(CN3CCC(Nc4ncnc5sc(CC(F)(F)F)cc45)CC3)ccc2[nH]1 | 2.2 µM (active)
71 | COc1ccccc1S(=O)(=O)Nc1ccc2c(c1)CN(C)C(=O)N2 | 3.7 µM (active)
72 | CC(C)c1c2cc(-c3ccnc(N[C@H]4CC[C@H](NC5CCOCC5)CC4)n3)ccc2nn1C | 0.1 µM (active)
73 | CO[C@H]1CC[C@H](N2C(=O)CNc3ncc(-c4ccc(C(C)(C)O)nc4)nc32)CC1 [ONATASERTIB] | 6 µM (active)
74 | Cc1nc(-c2ccccn2)sc1C(=O)Nc1ccccc1O | 2.8 µM (active)
75 | COc1ccc(Nc2nc(NCCCO)c3ccccc3n2)cc1 | 8.2 µM (active)
76 | OC(c1ccccc1)C(CN1CCCC1)c1ccccc1 (centres undefined) | 8.8 µM (active)
77 | CC(C)Cn1ccnc1NC(=O)COc1ccc2ccccc2c1 | 1.1 µM (active)
78 | Cc1cc(OCC(O)CN2CCN(C)CC2)cc(C)c1Cl (centres undefined) | 13.9 µM (inactive)
79 | N#Cc1ccnc(Nc2cc(C3CCN(C4COC4)CC3)cc(N3CCC(F)(F)C3)n2)c1 | 1.9 µM (active)
80 | Cc1ccn(-c2cc(N3CCN(C(=O)Nc4ccc5c(c4)OCO5)CC3)ncn2)n1 | 15.7 µM (inactive)
81 | Cc1cc2c(N3CC[C@@]4(C3)NC(=O)N(C)C4=O)ccnc2cc1Cl | 8.6 µM (active)
82 | CCCNC(=O)N1CC(Oc2ccc(-c3noc(-c4cccnc4)n3)cc2)C1 | 6 µM (active)
83 | COc1cc(C[C@H]2C(=O)OC[C@@H]2Cc2ccc(OC)c(OC)c2)ccc1O [ARCTIGENIN] | 2.6 µM (active)
84 | CCN1CCN(C(c2ccc(C(F)(F)F)cc2)c2ccc3cccnc3c2O)CC1 (centres undefined) | 4.1 µM (active)
85 | O=C(c1ccc(F)cc1)N1CCN(Cc2noc(-c3ccc(F)cc3)n2)CC1 | 5.8 µM (active)
86 | CC1Oc2ccc(S(=O)(=O)N3CCN(C(=O)c4ccc(Cl)cc4)CC3)cc2NC1=O (centres undefined) | 6.6 µM (active)
87 | CCn1c(SCc2cc(=O)n3ccsc3n2)nc2sc(C)c(C)c2c1=O | 20.2 µM (inactive)
88 | O=C(NCc1cccc(O)c1)Nc1nc(-c2ccncc2)cs1 | 10.7 µM (inactive)
89 | COc1ccc(C(=O)N2CCN(Cc3noc(-c4ccc(F)cc4)n3)CC2)cc1 | 4.5 µM (active)

From ChEMBL document CHEMBL5303711, “ECBD screening data for assay EOS300108” (2023)
